# Results published in PubChem BioAssay AID1117348 (Cheminformatics & Chemogenomics Research Group (CCRG), …, 2015).
# Activity calls are given as the source filed them. No rule for the calls is given here.
# Tested on: HeLa cell cycle, increased S-phase population
# Experiment: HeLa S-phase population increase, dose response, cell-based, IC50 (AID 1117348)
row,SMILES,IC50
1,O=C(O)CCCc1ccc(N(CCCl)CCCl)cc1,2.19 µM
2,O=C(Nc1ccc(Br)cc1)c1cc(Br)cc(Br)c1O,> 10 µM (inactive)
3,O=Cc1ccc(O)c(O)c1O,> 10 µM (inactive)
4,O=[N+]([O-])c1ccc(Oc2ccc(N=C=S)cc2)cc1,> 10 µM (inactive)
5,COc1ccc(-c2nc3ccc(C4=NNC(=O)CC4C)cc3[nH]2)cc1 (configuration not stated),> 10 µM (inactive)
6,Cc1ccccc1C(OCCN(C)C)c1ccccc1 (configuration not stated),> 10 µM (inactive)
7,CCN(CC)CCOc1ccc(C(O)(Cc2ccc(Cl)cc2)c2ccc(C)cc2)cc1 (configuration not stated),> 10 µM (inactive)
8,Clc1ccccc1C(c1ccccc1)(c1ccccc1)n1ccnc1,> 10 µM (inactive)
9,CC[C@]1(O)C[C@@H]2CN(CCc3c([nH]c4ccccc34)[C@@](C(=O)OC)(c3cc4c(cc3OC)N(C)[C@H]3[C@@](O)(C(=O)OC)[C@H](OC(C)=O)[C@]5(CC)C=CCN6CC[C@]43[C@@H]65)C2)C1,> 10 µM (inactive)
10,O=[N+]([O-])c1ccc(O)c2ncccc12,> 10 µM (inactive)
11,Cc1cc(=O)c2c(O)c3c(O)cc(=O)c4c3c3c(cc(O)c1c23)C(C)(C)C=4O,> 10 µM (inactive)
12,CCCCCCCCCCCCCCCC[n+]1ccccc1,> 10 µM (inactive)
13,C=CC(=O)Nc1cc2c(Nc3ccc(F)c(Cl)c3)ncnc2cc1OCCCN1CCOCC1,> 10 µM (inactive)
14,O=C1C2CC=CCC2C(=O)N1SC(Cl)(Cl)Cl (configuration not stated),> 10 µM (inactive)
15,Cc1cc(N)c2ccccc2[n+]1CCCCCCCCCC[n+]1c(C)cc(N)c2ccccc21,> 10 µM (inactive)
16,N[C@@H](Cc1ccc(N(CCCl)CCCl)cc1)C(=O)O,> 10 µM (inactive)
17,C=C(C)[C@H]1Cc2c(ccc3c2O[C@@H]2COc4cc(OC)c(OC)cc4[C@@H]2C3=O)O1,> 10 µM (inactive)
18,Nc1ccc2cc3ccc(N)cc3nc2c1,3.44 µM
19,C[C@@H]1C[C@H]2[C@@H]3CCC4=CC(=O)C=C[C@]4(C)[C@@]3(Cl)[C@@H](O)C[C@]2(C)[C@@]1(OC(=O)c1ccco1)C(=O)CCl,> 10 µM (inactive)

row,SMILES,IC50
1,CCC(=O)c1ccc(O)cc1,> 10 µM (inactive)
2,CCc1nc(N)nc(N)c1-c1ccc(Cl)cc1,> 10 µM (inactive)
3,CCN(CC)CCOc1ccccc1C(=O)CCc1ccccc1,> 10 µM (inactive)
4,CC[C@H](C)C(=O)O[C@H]1C[C@@H](C)C=C2C=C[C@H](C)[C@H](CC[C@@H]3C[C@@H](O)CC(=O)O3)[C@H]21,> 10 µM (inactive)
5,CC(=O)Oc1ccccc1C(=O)Nc1ncc([N+](=O)[O-])s1,> 10 µM (inactive)
6,CC(C)=CCC/C(C)=C/CC/C(C)=C/C(=O)OCC(=O)[C@@]1(O)CC[C@H]2[C@@H]3CCC4=CC(=O)C=C[C@]4(C)[C@H]3[C@@H](O)C[C@@]21C,> 10 µM (inactive)
7,O=C(O)CN(CCN(CC(=O)O)CC(=O)O)CCN(CC(=O)O)CC(=O)O,> 10 µM (inactive)
8,O=c1[nH]cc(F)c(=O)[nH]1,> 10 µM (inactive)
9,COc1cc(NCc2ccc3nc(N)nc(N)c3c2C)cc(OC)c1OC,> 10 µM (inactive)
10,CCN(CC)CCNc1ccc(CO)c2sc3ccccc3c(=O)c12,> 10 µM (inactive)
11,CN(Cc1cnc2nc(N)nc(N)c2n1)c1ccc(C(=O)N[C@@H](CCC(=O)O)C(=O)O)cc1,> 10 µM (inactive)
12,O=C1c2c(O)ccc(O)c2C(=O)c2c(NCCNCCO)ccc(NCCNCCO)c21,> 10 µM (inactive)
13,COCCOC(=O)C1=C(C)NC(C)=C(C(=O)OC/C=C/c2ccccc2)C1c1cccc([N+](=O)[O-])c1 (configuration not stated),> 10 µM (inactive)
14,COc1ccc(-c2ccc3cc(C(=O)O)ccc3c2)cc1C12CC3CC(CC(C3)C1)C2,> 10 µM (inactive)
15,Nc1nc(=O)n([C@@H]2O[C@H](CO)[C@@H](O)[C@@H]2F)cc1I,> 10 µM (inactive)
16,O=C(CCl)c1ccc(Cl)cc1Cl,> 10 µM (inactive)
17,COc1c(C)c2c(c(O)c1C/C=C(\C)CCC(=O)OCCN1CCOCC1)C(=O)OC2,0.0147 µM
18,COc1cc2c(c(OC)c1OC)-c1ccc(OC)c(=O)cc1[C@@H](NC(C)=O)CC2,0.1 µM (inactive)
